Measured values: patent publication US20090306083A1, “Use of Trifluoromethyl Substituted Benzamides in teh Treatment of Neurological Disorders” (Novartis AG, priority 2006, published 2009)

Test system: not given
Test: not given
Conditions: not given
With Cc1ccc(C(=O)Nc2cccc(C(F)(F)F)c2)cc1-c1ccc2scnc2c1 [Compound 10, 3-Benzothiazol-5-yl-4-methyl-N-(3-trifluoromethylphenyl)benzamide] the melting point was 200 to 202 °C.
In the case of Cc1ccc(C(=O)Nc2cccc(C(F)(F)F)c2)cc1-c1ccc2ncsc2c1 [Compound 6, 3-Benzothiazol-6-yl-4-methyl-N-(3-trifluoromethyl-phenyl)-benzamide], the melting point was 102 to 104 °C.
In the case of Cc1ccc(NC(=O)c2cccc(C(F)(F)F)c2)cc1-c1ccc2cnncc2c1 [Compound 7, N-(4-Methyl-3-phthalazin-6-yl-phenyl)-3-trifluoromethyl-benzamide], the melting point was 205 to 206 °C.
In the case of Cc1ccc(C(=O)Nc2cccc(C(F)(F)F)c2)cc1-c1ccc2cnncc2c1 [Compound 8, 4-Methyl-3-phthalazin-6-yl-N-(3-trifluoromethyl-phenyl)-benzamide], the melting point was 270 to 272 °C.
In the case of Cc1ccc(NC(=O)c2cccc(C(F)(F)F)c2)cc1-c1ccc2scnc2c1 [Compound 9, N-(3-Benzothiazol-5-yl-4-methyl-phenyl)-3-trifluoromethyl-benzamide], the melting point was 90 to 93 °C.
For Cc1ccc(NC(=O)c2cccc(C(F)(F)F)c2)cc1-c1ccc2ccncc2c1 [Compound 1, N-(3-Isoquinolin-7-yl-4-methyl-phenyl)-3-trifluoromethyl-benzamide], the melting point was 148 to 152 °C.
Compound Cc1ccc(NC(=O)c2cccc(C(F)(F)F)c2)cc1-c1ccc2ncsc2c1 [Compound 5, N-(3-Benzothiazol-6-yl-4-methyl-phenyl)-3-trifluoromethyl-benzamide] has a melting point of 94 to 96 °C.

Test system: astrocytes
Test: Astrocyte scratch wound assay (in vitro assay for astrogliosis)
Type: cell-based, C57BL/6 mice
Conditions: cytokines (TGF-α, LIF, and IFN) plus 10 nM compound; serum free=1
Experimental: Assay Astrocytes are prepared from the cerebral cortex of neonatal C57BL/6 mice(P1-P2). Cells are maintained in Dulbecco's modified Eagle's medium with 10% FBS. 4-7 weeks old astrocytes are plated to confluence in 2 well chamber slides coated with poly-D-lysine for the scratch wound assay and serum starved. 48 hrs after serum starvation, the monolayer of astrocytes is scratched with sterile 200 μl tips and washed twice with PBS to get rid of cell debris. Conditioned medium (±cytokines) is added to the wounded astrocytes. The microscopic images of the scratch is captured at a magnification of 10× right after scratch and considered as time point 0.24 hrs, 48 hrs or 72 hrs after scratch, the same region of scratch is imaged and fixed with methanol containing 1 μg/ml of DAPI to monitor migration and proliferation of astrocytes.
With Cc1ccc(C(=O)Nc2cccc(C(F)(F)F)c2)cc1-c1ccc2ccncc2c1 [Compound 3, 3-Isoquinolin-7-yl-4-methyl-N-(3-trifluoromethyl-phenyl)-benzamide] the “astrocyte migration induced by cytokines (relative area of cell migration compared to control)” value was “block astrocyte migration induced by cytokines”.

Molecular target: T1, EphA4 receptor (Mus musculus, UniProt Q03137)
T1 construct: The brains were removed and one half of each brain was weighed and homogenized; from tissue; host or cells: mouse brain (NMRI mice), homogenate
T1 sequence (Q03137 20-986): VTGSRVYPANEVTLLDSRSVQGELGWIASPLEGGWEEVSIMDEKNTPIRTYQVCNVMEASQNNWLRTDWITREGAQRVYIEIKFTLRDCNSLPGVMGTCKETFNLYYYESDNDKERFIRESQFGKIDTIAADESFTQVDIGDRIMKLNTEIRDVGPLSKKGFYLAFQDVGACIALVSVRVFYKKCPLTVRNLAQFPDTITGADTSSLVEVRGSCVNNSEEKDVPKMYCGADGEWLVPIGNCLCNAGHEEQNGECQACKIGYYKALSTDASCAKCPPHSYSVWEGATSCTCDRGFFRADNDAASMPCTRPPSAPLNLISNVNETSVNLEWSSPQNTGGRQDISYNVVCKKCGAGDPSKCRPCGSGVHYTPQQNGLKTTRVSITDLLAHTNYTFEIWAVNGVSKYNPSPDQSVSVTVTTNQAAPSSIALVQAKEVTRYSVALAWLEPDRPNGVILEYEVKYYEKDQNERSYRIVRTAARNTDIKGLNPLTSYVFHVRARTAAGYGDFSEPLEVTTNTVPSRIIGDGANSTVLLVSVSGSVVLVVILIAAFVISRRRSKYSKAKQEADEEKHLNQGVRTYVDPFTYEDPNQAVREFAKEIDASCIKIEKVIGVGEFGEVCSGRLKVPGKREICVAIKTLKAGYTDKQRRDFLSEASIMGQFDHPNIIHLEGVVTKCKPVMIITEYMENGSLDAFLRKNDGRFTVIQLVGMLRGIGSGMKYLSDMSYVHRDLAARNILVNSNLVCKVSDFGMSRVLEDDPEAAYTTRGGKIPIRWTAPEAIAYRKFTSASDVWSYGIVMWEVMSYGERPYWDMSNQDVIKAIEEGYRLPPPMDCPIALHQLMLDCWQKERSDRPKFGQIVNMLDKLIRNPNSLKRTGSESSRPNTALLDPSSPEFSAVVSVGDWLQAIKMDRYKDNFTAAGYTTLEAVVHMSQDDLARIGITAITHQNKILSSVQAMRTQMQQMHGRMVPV
Test: Proof of mechanism: EphA4 phosphorylation in vivo in mouse brain (EphA4 immunoprecipitation, phospho-tyrosine Western blot)
Set-up: species or system NMRI mice
Conditions: i.v. dose 10 mg/kg; sacrificed 25 minutes or 1 hour after dosing; brain homogenate
Experimental: Male NMRI mice were injected with relevant compounds at a dose of 10 mg/kg body weight and were sacrificed either 25 minutes or 1 hour following the dosing (0.25 h or 1 h shown in FIG. 4). The brains were removed and one half of each brain was weighed and homogenized in appropriate volume of lysis buffer for 30 seconds (10 seconds pulse and 10 seconds off—3 times). The homogenate was spun at 12,000 g for 30 minutes. Protein amounts were estimated for supernatants (using BCA) and equal amounts of protein for each condition were subjected to EphA4 immunoprecipitation followed by a phospho-tyrosine western blot. Four control animals were used and three experimental animals per time point were used for each of the compounds tested.
In the case of Cc1ccc(C(=O)Nc2cccc(C(F)(F)F)c2)cc1-c1ccc2ccncc2c1 [Compound 3, 3-Isoquinolin-7-yl-4-methyl-N-(3-trifluoromethyl-phenyl)-benzamide], the “EphA4 phosphorylation in vivo in mouse brain” value was “block EphA4 phosphorylation in vivo in mouse brain”.
